{"source": "patent US20150080475A1", "about": "“Memantine Protects Inflammation-Related Degeneration of Dopamine Neurons Through Inhibition of Over-Activated Microglia and Release of Neurotrophic Factors From Astroglia” (priority 2009, published 2015)", "key": {"[1]": {"tested_on": "rewarding effect of morphine", "test": "Conditioned place preference (CPP) test in chronic morphine-treated rats", "assay_type": "in vivo, SD rats", "protocol": "The SD rats were divided into four groups as follow: • 1. Control group: (inject saline only) • 2. Morphine only group: (M, 5 mg/kg) • 3. Pretreatment memantine (MEM, 0.2 mg/kg) with morphine group • (MEM was administrated 30 min before each M injection for 6 days) • 4. Post-treatment MEM group • (MEM was administrated after chronic M injection for 6 days)\nDrug-induced reward effect was measured by the conditioned place preference (CPP) test. The CPP test apparatus was divided into two compartments. A two compartment box (60×29.2×29.2 cm) with a transparent Plexiglas front was separated by a gray cylinder platform (10.3 cm in diameter and 12 cm in height) as the Dr. Tseng described previously was used (Terashvili et al., 2008). One compartment was white with a textured floor and the other was black with a smooth floor. […] We determined the place preference before conditioning and on the day after conditioning (day 0, day 7, day 11 and day 13) by placing the rat into the CPP test apparatus with the gray cylinder doors open for 15 min. The time that the rats stayed in each compartment was recorded. The measurement of the drug reward effect was determined by the increase in the time spent in the compartment previously paired with drug injection relative to that spent in the saline-paired compartment."}, "GDNF": {"tested_on": "GDNF", "test": "RT-PCR of GDNF mRNA in astroglial cultures", "assay_type": "cell-based, rat", "conditions": "memantine 10 μM, time-dependent, 0 min to 24 h", "protocol": "GDNF mediated memantine-induced neurotrophic effects. Rat primary astroglia were exposed to 10 μM memantine for various time points ranging from 0 minute to 24 h. (FIG. 5A) Total RNA was extracted. […] (FIG. 5B) The ratio of densitometry values of GDNF and β-actin was analyzed and normalized to 0 min value. (FIG. 5C) Total protein of astroglial cells was extracted. Western blot analyses were performed with the antibody to GDNF. GAPDH was used as loading control. (FIG. 5D) The ratio of densitometry values of GDNF and GAPDH was analyzed and normalized to 0 min value. Values were expressed as mean±S.E.M. of three independent experiments. *p<0.05, **p<0.01, ***p<0.001, Bonferroni t-test vs 0 min for FIG. 5B and FIG. 5D; (FIG. 5E) Neuron-glia cultures were treated with either control goat IgG (isotype Ab), or goat anti-GDNF, combined with memantine (10 μM) treatment. DA uptake capacity was measured 7 days later. Results were expressed as a percentage of the vehicle-treated control cultures and represented mean±S.E.M. of three independent experiments performed in triplicate. *p<0.05, **p<0.01, ***p<0.001, Bonferroni's test vs control; #p<0.05, Bonferroni t-test vs memantine treated cultures.\nMixed-glia cultures were first prepared from brains of 1-day-old Fisher 344 rat pups, as described previously. […]"}, "microglia": {"tested_on": "microglia", "test": "Superoxide assay (SOD-inhibitable WST-1 reduction) after LPS", "assay_type": "cell-based", "conditions": "30 min after LPS", "protocol": "Extracellular superoxide (O2^−) production from microglia was determined by measuring the superoxide dismutase (SOD) inhibitable reduction of 2-(4-lodophenyl)-3-(4-nitrophenyl)-5-(2,4,-disulfophenyl)-2H-tetrazolium, monosodium salt, WST-1. Briefly, 200 μL of primary enriched-microglia were seeded (1×10^5/well) in 96-well plates. The cells were then incubated for 24 h at 37° C. in a humidified atmosphere of 5% CO2 and 95% air. Immediately before treatment, cells were washed twice with Hanks balanced salt solution (HBSS). To each well, 100 μL of HBSS with or without SOD (600 U/mL), 50 μL of vehicle or LPS, and 50 μL of WST-1 (1 mM) in HBSS were added. The cultures were incubated for 30 min at 37° C. and 5% CO2 and 95% air. The absorbance at 450 nm was read with a Spectra Max Plus microtiter plate spectrophotometer (Molecular Devices, Sunnyvale, Calif., USA). […] The amount of SOD-inhibitable superoxide was calculated and expressed as percent of vehicle-treated control cultures.\nNeuron-glia cultures were pretreated for 30 min with MMT (3 μM) or vehicle before LPS stimulation. […] Production of superoxide (30 min after LPS) and iROS (2 h after LPS) was decreased by MMT treatment (FIGS. 6A and 6B). […] The production of PGE2 in cultures pretreated with 3 and 10 μM MMT decreased by 23% and 27% respectively (FIG. 6E)."}}}
{"smiles": "CC12CC3CC(C)(C1)CC(N)(C3)C2.Cl", "note": "[MMT, 1-amino-3,5-dimethyladamantane hydrochloride]", "values": [{"measurement": "time of staying in the compartment paired with morphine (CPP)", "setting": "[1]; post-treatment, memantine 0.2 mg/kg s.c. once daily for 6 days after chronic morphine", "result": "reduced time of staying in the compartment paired with morphine"}, {"measurement": "time of staying in the compartment paired with morphine (CPP)", "setting": "[1]; pretreatment, memantine 0.2 mg/kg s.c. 30 min before each morphine 5 mg/kg i.p., 6 days", "result": "reduced time of staying in the compartment paired with morphine"}, {"measurement": "GDNF mRNA levels", "setting": "GDNF", "result": "significant main effects"}, {"measurement": "production of superoxide", "setting": "microglia", "result": "decreased"}]}
